Reference: US20250368649A1, “TETRAHYDROPYRIDOPYRIMIDINE PAN-KRAS INHIBITORS” (Mirati Therapeutics, Inc., priority 2022, published 2025)

Tests used:
[1] = test system: ASPC1 cells; experiment: Inhibition of KRas-mediated phosphorylation of ERK (Cisbio HTRF pERK), ASPC1 cells; format: cell-based; settings: Homo sapiens, AsPC-1 cells; for IC50: ASPC1, 3 h, 3 hr compound incubation; for inhibition at 0.1 µM: ASPC1, single point at 100 nM, 3 hrs compound incubation
[2] = test system: H727 cells; experiment: Inhibition of KRas-mediated phosphorylation of ERK (Cisbio HTRF pERK), H727 cells; format: cell-based; settings: Homo sapiens; for IC50: NCI-H727, 3 h, 3 hr compound incubation; for inhibition at 0.1 µM: NCI-H727, single point at 100 nM, 3 hrs compound incubation
[3] = test system: A549 cells; experiment: Inhibition of KRas-mediated phosphorylation of ERK (Cisbio HTRF pERK), A549 cells; format: cell-based; settings: Homo sapiens; for IC50: A549, 3 h, 3 hr compound incubation; for inhibition at 0.1 µM: single point at 100 nM, 3 hrs compound incubation
[4] = test system: H460 cells; experiment: Inhibition of KRas-mediated phosphorylation of ERK (Cisbio HTRF pERK), H460 cells; format: cell-based; settings: Homo sapiens; for IC50: NCI-H460, 3 h, 3 hr compound incubation; for inhibition at 0.1 µM: NCI-H460, single point at 100 nM, 3 hrs compound incubation
[5] = test system: HCT116 cells; experiment: Inhibition of KRas-mediated phosphorylation of ERK (Cisbio HTRF pERK), HCT116 cells; format: cell-based; settings: Homo sapiens; for IC50: HCT-116, 3 h, 3 hr compound incubation; for inhibition at 0.1 µM: HCT-116, single point at 100 nM, 3 hrs compound incubation
[6] = test system: H358 cells; experiment: Inhibition of KRas-mediated phosphorylation of ERK (Cisbio HTRF pERK), H358 cells; format: cell-based; settings: Homo sapiens; for IC50: NCI-H358, 3 h, 3 hr compound incubation; for inhibition at 0.1 µM: NCI-H358, single point at 100 nM, 3 hrs compound incubation
[7] = biological target: KRas G12D (Homo sapiens, UniProt P01116, G12D); experiment: biochemical; settings: Binding to KRas (IC50 nM) G12D, TR-FRET displacement, KRas G12D
Sequence of KRas G12D (P01116 1-169 isoform P01116-2 G12D): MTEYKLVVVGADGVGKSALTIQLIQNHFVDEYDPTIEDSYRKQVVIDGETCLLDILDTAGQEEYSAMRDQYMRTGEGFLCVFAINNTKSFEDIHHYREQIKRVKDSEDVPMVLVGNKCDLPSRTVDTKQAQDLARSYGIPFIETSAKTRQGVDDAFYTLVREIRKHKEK

[8] = biological target: KRas G12R (Homo sapiens, UniProt P01116, G12R); experiment: biochemical; settings: Binding to KRas (IC50 nM) G12R, TR-FRET displacement, KRas G12R
Sequence of KRas G12R (P01116 1-169 isoform P01116-2 G12R): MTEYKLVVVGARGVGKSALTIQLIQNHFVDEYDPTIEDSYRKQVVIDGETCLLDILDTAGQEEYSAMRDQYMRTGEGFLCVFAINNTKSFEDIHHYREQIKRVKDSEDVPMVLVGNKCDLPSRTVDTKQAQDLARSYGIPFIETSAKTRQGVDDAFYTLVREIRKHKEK

[9] = biological target: KRas G12V (Homo sapiens, UniProt P01116, G12V); experiment: biochemical; settings: Binding to KRas (IC50 nM) G12V, TR-FRET displacement, KRas G12V
Sequence of KRas G12V (P01116 1-169 isoform P01116-2 G12V): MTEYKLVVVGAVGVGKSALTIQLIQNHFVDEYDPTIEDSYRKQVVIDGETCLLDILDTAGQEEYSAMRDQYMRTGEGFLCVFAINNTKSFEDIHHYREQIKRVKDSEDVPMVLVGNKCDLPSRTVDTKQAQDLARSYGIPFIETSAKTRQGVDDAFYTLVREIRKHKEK

[10] = biological target: KRas WT (Homo sapiens, UniProt P01116); experiment: KRas binding assay (TR-FRET displacement), KRas WT; settings: TR-FRET displacement
Sequence of KRas WT (P01116 1-169 isoform P01116-2): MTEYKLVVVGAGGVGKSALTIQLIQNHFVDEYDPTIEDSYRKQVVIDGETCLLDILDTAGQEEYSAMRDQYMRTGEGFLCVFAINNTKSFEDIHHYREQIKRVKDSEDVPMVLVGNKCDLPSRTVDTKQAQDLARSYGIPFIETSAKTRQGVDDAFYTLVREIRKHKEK

[11] = biological target: KRas G12C (Homo sapiens, UniProt P01116, G12C); format: binding; settings: TR-FRET displacement, read-out: Binding to KRas (IC50 nM) G12C
Sequence of KRas G12C (P01116 1-169 isoform P01116-2 G12C): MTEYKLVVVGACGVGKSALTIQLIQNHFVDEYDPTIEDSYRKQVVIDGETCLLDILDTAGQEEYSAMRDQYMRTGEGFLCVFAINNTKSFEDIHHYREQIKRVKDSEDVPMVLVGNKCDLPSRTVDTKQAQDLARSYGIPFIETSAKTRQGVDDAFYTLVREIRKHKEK

[12] = biological target: KRas G12S (Homo sapiens, UniProt P01116, G12S); format: binding; settings: TR-FRET displacement, read-out: Binding to KRas (IC50 nM) G12S
Sequence of KRas G12S (P01116 1-169 isoform P01116-2 G12S): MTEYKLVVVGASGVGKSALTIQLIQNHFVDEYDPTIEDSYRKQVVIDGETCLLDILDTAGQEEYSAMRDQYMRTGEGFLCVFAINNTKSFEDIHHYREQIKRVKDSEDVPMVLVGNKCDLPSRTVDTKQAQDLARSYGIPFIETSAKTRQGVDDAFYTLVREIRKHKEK

| SMILES | IC50 ([1]; Cisbio pERK HTRF) [nM] | inhibition at 0.1 µM [1] [%] | IC50 ([2]; Cisbio pERK HTRF) [nM] | inhibition at 0.1 µM [2] [%] | inhibition at 0.1 µM [3] [%] | inhibition at 0.1 µM [4] [%] | inhibition at 0.1 µM [5] [%] | inhibition at 0.1 µM [6] [%] | IC50 [7] [nM] | IC50 [8] [nM] | IC50 [9] [nM] | also measured |
| --- | --- | --- | --- | --- | --- | --- | --- | --- | --- | --- | --- | --- |
| O=S1(=O)NCC2(CCCN(c3nc(OC[C@@]45CCCN4C[C@H](F)C5)nc4c3CCN(c3cc(O)cc5ccc(F)c(F)c35)C4)C2)N1 (stereo partly drawn) [Example 447, 7-(7-(7,8-difluoro-3-hydroxynaphthalen-1-yl)-2-(((2R,7aS)-2-fluorohexahydro-1H-pyrrolizin-7a-yl)methoxy)-5,6,7,8-tetrahydropyrido[3,4-d]pyrimidin-4-yl)-2-thia-1,3,7-triazaspiro[4.5]decane 2,2-dioxide] | 202 | 23 | 179 | 24 | 28 | 35 | 28 | 61 | < 2 | < 2 | < 2 | IC50 ([3]; Cisbio pERK HTRF): 373 nM; IC50 ([4]; Cisbio pERK HTRF): 170 nM; IC50 ([5]; Cisbio pERK HTRF): 338 nM; IC50 ([6]; Cisbio pERK HTRF): 44 nM |
| Oc1cc(N2CCc3c(nc(OC[C@@]45CCCN4C[C@H](F)C5)nc3N3CCCC4(CCO4)C3)C2)c2c(Cl)c(F)ccc2c1 (stereo partly drawn) [Example 463, 5-chloro-6-fluoro-4-(2-(((2R,7aS)-2-fluorohexahydro-1H-pyrrolizin-7a-yl)methoxy)-4-(1-oxa-6-azaspiro[3.5]nonan-6-yl)-5,6-dihydropyrido[3,4-d]pyrimidin-7(8H)-yl)naphthalen-2-ol] | 615 | 15 | 597 | 20 | 18 | 2 | -3 | -13 | < 2 | < 2 | < 2 |  |
| CN(C)CC1(COc2nc3c(c(N4CCCn5nc(C(=O)N6CCOCC6)cc5C4)n2)CCN(c2cc(O)cc4ccc(F)c(Cl)c24)C3)CC1 [Example 468, (5-(7-(8-chloro-7-fluoro-3-hydroxynaphthalen-1-yl)-2-((l-((dimethylamino)methyl)cyclopropyl)methoxy)-5,6,7,8-tetrahydropyrido[3,4-d]pyrimidin-4-yl)-5,6,7,8-tetrahydro-4H-pyrazolo[1,5-a][1,4]diazepin-2-yl)(morpholino)methanone] | 1940 |  | 1770 |  | -12 | -7 | -4 | -2 | 2 | 10 | 3 |  |
| CCc1c(F)ccc2cc(OC)cc(N3CCc4c(nc(OC[C@@]56CCCN5C[C@H](F)C6)nc4N4CCCn5nc(C(=O)N(C)C)cc5C4)C3)c12 [Example 469, 5-(7-(8-ethyl-7-fluoro-3-methoxynaphthalen-1-yl)-2-(((2R,7aS)-2-fluorohexahydro-1H-pyrrolizin-7a-yl)methoxy)-5,6,7,8-tetrahydropyrido[3,4-d]pyrimidin-4-yl)-N,N-dimethyl-5,6,7,8-tetrahydro-4H-pyrazolo[1,5-a][1,4]diazepine-2-carboxamide] | 1200 |  | 1980 |  | -1 | 2 | 0 | 0 | 8 | 105 | 24 |  |
| CCc1c(F)ccc2cc(O)cc(N3CCc4c(nc(OC[C@@]56CCCN5C[C@H](F)C6)nc4N4CCCCC(COCC(N)=O)C4)C3)c12 (stereo partly drawn) [Example 492, 2-((1-(7-(8-ethyl-7-fluoro-3-hydroxynaphthalen-1-yl)-2-(((2R,7aS)-2-fluorohexahydro-1H-pyrrolizin-7a-yl)methoxy)-5,6,7,8-tetrahydropyrido[3,4-d]pyrimidin-4-yl)azepan-3-yl)methoxy)acetamide] | 9040 | -11 | 3940 | 0 | -24 | 6 | 23 | -3 | 11 | 6 | 7 |  |
| CCc1c(F)ccc2cc(O)cc(N3CCc4c(nc(OC[C@@]56CCCN5C[C@H](F)C6)nc4N4CCCn5nc(CS(=O)(=O)N(C)C)cc5C4)C3)c12 [Example 494, 1-(5-(7-(8-ethyl-7-fluoro-3-hydroxynaphthalen-1-yl)-2-(((2R,7aS)-2-fluorohexahydro-1H-pyrrolizin-7a-yl)methoxy)-5,6,7,8-tetrahydropyrido[3,4-d]pyrimidin-4-yl)-5,6,7,8-tetrahydro-4H-pyrazolo[1,5-a][1,4]diazepin-2-yl)-N,N-dimethylmethanesulfonamide] | 749 | -4 | 2580 | 13 | 14 | 4 | 4 | 8 | 12 | 24 | 26 |  |
| CCc1c(F)ccc2cc(O)cc(N3CCc4c(nc(OC[C@@]56CCCN5C[C@H](F)C6)nc4N4CCCn5nc(C(=O)N6CC7CC6CN7)cc5C4)C3)c12 (stereo partly drawn) [Example 502, 2,5-diazabicyclo[2.2.1]heptan-2-yl(5-(7-(8-ethyl-7-fluoro-3-hydroxynaphthalen-1-yl)-2-(((2R,7aS)-2-fluorohexahydro-1H-pyrrolizin-7a-yl)methoxy)-5,6,7,8-tetrahydropyrido[3,4-d]pyrimidin-4-yl)-5,6,7,8-tetrahydro-4H-pyrazolo[1,5-a][1,4]diazepin-2-yl)methanone] | 124 | 22 | 1310 | 7 | 11 | 7 | 8 | 5 | < 2 | 3 | < 2 |  |
| CCc1c(F)ccc2cc(O)cc(N3CCc4c(nc(OCC5(CN(C)C)CC5)nc4N4CCOC(c5n[nH]c(CO)n5)C4)C3)c12 (centres unmarked) [Example 602, 4-(2-((1-((dimethylamino)methyl)cyclopropyl)methoxy)-4-(2-(5-(hydroxymethyl)-1H-1,2,4-triazol-3-yl)morpholino)-5,8-dihydropyrido[3,4-d]pyrimidin-7(6H)-yl)-5-ethyl-6-fluoronaphthalen-2-ol] | > 10000 |  | > 10000 |  |  |  |  |  | 44 | 3 | 6 | IC50 ([3]; Cisbio pERK HTRF): > 10000 nM; IC50 ([4]; Cisbio pERK HTRF): 7580 nM; IC50 ([5]; Cisbio pERK HTRF): > 10000 nM; IC50 ([6]; Cisbio pERK HTRF): 907 nM |
| CCc1c(F)ccc2cc(O)cc(N3CCc4c(nc(OC[C@@]56CCCN5C[C@H](F)C6)nc4N4CCCN(CC(F)(F)F)CC4)C3)c12 [Example 649, 5-ethyl-6-fluoro-4-(2-(((2R,7aS)-2-fluorotetrahydro-1H-pyrrolizin-7a(5H)-yl)methoxy)-4-(4-(2,2,2-trifluoroethyl)-1,4-diazepan-1-yl)-5,8-dihydropyrido[3,4-d]pyrimidin-7(6H)-yl)naphthalen-2-ol] |  |  |  |  |  |  |  |  | 124 | 34 | 29 | IC50 [1]: 6520 nM; IC50 [2]: 3710 nM; IC50 [3]: 3100 nM; IC50 [4]: 2440 nM; IC50 [5]: > 10000 nM; IC50 [6]: 1100 nM |
| CN(C)C(=O)c1cc2n(n1)CCCN(c1nc(OC[C@@]34CCCN3C[C@H](F)C4)nc3c1CCN(c1ccc(F)c4sc(N)c(C#N)c14)C3)C2 [Example 709, 5-(7-(2-amino-3-cyano-7-fluorobenzo[b]thiophen-4-yl)-2-(((2R,7aS)-2-fluorotetrahydro-1H-pyrrolizin-7a(5H)-yl)methoxy)-5,6,7,8-tetrahydropyrido[3,4-d]pyrimidin-4-yl)-N,N-dimethyl-5,6,7,8-tetrahydro-4H-pyrazolo[1,5-a][1,4]diazepine-2-carboxamide] |  |  |  |  |  |  |  |  | 17 |  | 31 | IC50 [10]: 95 nM; IC50 [11]: 72 nM; IC50 [12]: 83 nM; IC50 [1]: 4290 nM; IC50 [2]: 4720 nM; IC50 [3]: 8710 nM; IC50 [6]: 1250 nM |
